Active and inactive are the calls of the source. No cut-off for these calls is given here.
Experiments:
Adenosine receptor A1 [1] = molecular target: T1, Adenosine receptor A1 (Homo sapiens, UniProt P30542); assay: (§1) Agonist activity at human recombinant adenosine A1 receptor transfected in CHO cells assessed as inhibition of forskolin-induced adenylyl cyclase activity; format: functional, cell-based
T1 sequence (P30542 whole entry): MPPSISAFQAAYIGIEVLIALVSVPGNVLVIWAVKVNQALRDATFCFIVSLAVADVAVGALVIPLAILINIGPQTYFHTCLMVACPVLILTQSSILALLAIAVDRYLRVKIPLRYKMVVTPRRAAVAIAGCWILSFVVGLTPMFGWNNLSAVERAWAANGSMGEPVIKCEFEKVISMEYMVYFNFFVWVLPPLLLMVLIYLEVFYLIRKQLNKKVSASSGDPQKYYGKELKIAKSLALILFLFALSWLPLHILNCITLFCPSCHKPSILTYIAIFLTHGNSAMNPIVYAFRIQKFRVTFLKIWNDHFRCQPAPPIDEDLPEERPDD

[2] = molecular target: T2, Adenosine receptor A1 (Homo sapiens) (UniProt P30542); assay: as §1; format: functional, cell-based
T2 sequence (whole entry): T1 sequence (P30542 whole entry)

Adenosine receptor A3 [3] = molecular target: T3, Adenosine receptor A3 (Homo sapiens, UniProt P0DMS8); assay: Displacement of [3H]-HEMADO from human recombinant adenosine A3 receptor transfected in CHO cells; format: cell-based
T3 sequence (P0DMS8 whole entry): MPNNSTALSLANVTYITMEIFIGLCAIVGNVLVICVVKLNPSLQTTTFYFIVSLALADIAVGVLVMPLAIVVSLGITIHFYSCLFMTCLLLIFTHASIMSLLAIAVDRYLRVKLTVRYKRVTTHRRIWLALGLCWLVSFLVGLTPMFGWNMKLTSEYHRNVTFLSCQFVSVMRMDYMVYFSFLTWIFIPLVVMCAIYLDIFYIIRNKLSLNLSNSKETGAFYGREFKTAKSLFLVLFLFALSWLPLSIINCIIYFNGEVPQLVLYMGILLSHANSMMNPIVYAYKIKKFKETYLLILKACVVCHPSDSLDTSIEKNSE

Adenosine receptor A2b = molecular target: T4, Adenosine receptor A2b (Homo sapiens, UniProt P29275); assay: (§2) Agonist activity at human recombinant adenosine A2B receptor transfected in CHO cells assessed as induction of adenylyl cyclase activity; format: functional, cell-based
T4 sequence (P29275 whole entry): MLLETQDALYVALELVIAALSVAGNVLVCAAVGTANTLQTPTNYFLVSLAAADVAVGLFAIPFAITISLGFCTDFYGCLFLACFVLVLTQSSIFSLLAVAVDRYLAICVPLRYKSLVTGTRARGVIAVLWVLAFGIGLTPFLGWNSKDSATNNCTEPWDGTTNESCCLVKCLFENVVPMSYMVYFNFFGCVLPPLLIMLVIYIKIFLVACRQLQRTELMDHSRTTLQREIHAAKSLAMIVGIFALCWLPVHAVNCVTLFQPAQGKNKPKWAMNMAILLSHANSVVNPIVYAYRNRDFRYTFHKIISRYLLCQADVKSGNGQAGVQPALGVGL

[4] = molecular target: T5, Adenosine receptor A2b (Homo sapiens) (UniProt P29275); assay: as §2; format: functional, cell-based
T5 sequence (whole entry): T4 sequence (P29275 whole entry)

Adenosine receptor A1 [5] = molecular target: T1, Adenosine receptor A1; assay: Displacement of [3H]-CCPA from human recombinant adenosine A1 receptor transfected in CHO cells; format: cell-based
Adenosine receptor A3 [6] = molecular target: T3, Adenosine receptor A3; assay: Antagonist activity at human recombinant adenosine A3 receptor transfected in CHO cells assessed as reversal of NECA-induced inhibition of forskolin-induced adenylyl cyclase activity; format: functional, cell-based
Adenosine receptor A2a [7] = molecular target: T6, Adenosine receptor A2a (Homo sapiens, UniProt P29274); assay: Agonist activity at human recombinant adenosine A2A receptor transfected in CHO cells assessed as induction of adenylyl cyclase activity; format: functional, cell-based
Adenosine receptor A2a [8] = molecular target: T6, Adenosine receptor A2a; assay: Displacement of [3H]-NECA from human recombinant adenosine A2A receptor transfected in CHO cells; format: cell-based
[9] = molecular target: T5, Adenosine receptor A2b (Homo sapiens); assay: Partial agonist activity at human recombinant adenosine A2B receptor transfected in CHO cells assessed as induction of adenylyl cyclase activity relative to NECA; format: functional, cell-based
Homo sapiens [10] = species on record: Homo sapiens; assay: Selectivity ratio of Ki for human recombinant adenosine A2A receptor to Ki for human recombinant adenosine A3 receptor
Homo sapiens [11] = species on record: Homo sapiens; assay: Selectivity ratio of Ki for human recombinant adenosine A2A receptor to Ki for human recombinant adenosine A1 receptor

T6 sequence (P29274 whole entry): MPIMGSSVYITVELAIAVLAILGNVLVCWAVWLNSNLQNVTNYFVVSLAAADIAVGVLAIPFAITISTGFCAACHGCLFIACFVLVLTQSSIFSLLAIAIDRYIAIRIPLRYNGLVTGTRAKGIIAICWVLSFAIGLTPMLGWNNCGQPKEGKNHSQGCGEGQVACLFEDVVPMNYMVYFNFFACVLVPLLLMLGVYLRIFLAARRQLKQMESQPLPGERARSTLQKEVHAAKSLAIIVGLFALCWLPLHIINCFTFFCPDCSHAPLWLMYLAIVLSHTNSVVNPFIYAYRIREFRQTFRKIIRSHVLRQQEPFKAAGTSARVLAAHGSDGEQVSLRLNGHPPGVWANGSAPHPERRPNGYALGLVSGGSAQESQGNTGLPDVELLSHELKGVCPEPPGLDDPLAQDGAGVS

| Structure (SMILES) | EC50 (Adenosine receptor A1 [1]) [µM] | Efficacy [2] [%] | Ki (Adenosine receptor A3 [3]) [µM] | EC50 (Adenosine receptor A2b) [µM] | Efficacy [4] [%] | Ki (Adenosine receptor A1 [5]) [µM] | EC50 (Adenosine receptor A3 [6]) [µM] | EC50 (Adenosine receptor A2a [7]) [µM] | Efficacy (Adenosine receptor A2a [7]) [%] | Ki (Adenosine receptor A2a [8]) [µM] | Efficacy [9] [%] | Ratio Ki (Homo sapiens [10]) | Activity [9] [%] | Ratio Ki (Homo sapiens [11]) | inhibition [2] |
| --- | --- | --- | --- | --- | --- | --- | --- | --- | --- | --- | --- | --- | --- | --- | --- |
| CCn1nnc([C@H]2O[C@@H](n3cnc4c(NC5CC5)nc(Cl)nc43)[C@H](O)[C@@H]2O)n1 | 0.00362 | > 90 | 0.0039 | 1.15 | > 90 | 0.000311 | 0.0395 | 0.00531 | > 90 | 0.0622 | – | – | – | – | – |
| CCn1nnc([C@H]2O[C@@H](n3cnc4c(NC5CC5)ncnc43)[C@H](O)[C@@H]2O)n1 | 0.00861 | > 90 | 0.00797 | 0.675 | > 90 | 0.000682 | 0.0515 | 0.00975 | > 90 | 0.093 | – | – | – | – | – |
| CCn1nnc([C@H]2O[C@@H](n3cnc4c(N)ncnc43)[C@H](O)[C@@H]2O)n1 | 0.0263 | > 90 | 0.00386 | 0.347 | > 90 | 0.000919 | 0.0936 | 0.00236 | > 90 | 0.00812 | – | – | – | – | – |
| CCn1nnc([C@H]2O[C@@H](n3cnc4c(Nc5ccc(Cl)cc5F)ncnc43)[C@H](O)[C@@H]2O)n1 | 0.0102 | > 90 | 0.00261 | 0.53 | > 90 | 0.000432 | 0.0339 | 0.0084 | > 90 | 0.0775 | – | – | – | – | – |
| CCn1nnc([C@H]2O[C@@H](n3cnc4c(NCc5ccccc5I)nc(Cl)nc43)[C@H](O)[C@@H]2O)n1 | 0.0649 | > 90 | 0.000588 | 0.834 | – | 0.00239 | 0.0133 | 0.00904 | – | 0.108 | 76 | – | – | – | – |
| CCn1nnc([C@H]2O[C@@H](n3cnc4c(Nc5ccc(Cl)cc5F)nc(Cl)nc43)[C@H](O)[C@@H]2O)n1 | 0.0648 | > 90 | 0.00471 | – | > 90 | 0.00167 | 0.037 | 0.0288 | > 90 | 0.223 | – | – | – | – | – |
| CCn1nnc([C@H]2O[C@@H](n3cnc4c(N)nc(Cl)nc43)[C@H](O)[C@@H]2O)n1 | 0.0198 | > 90 | 0.0018 | 0.542 | > 90 | 0.000966 | 0.0317 | 0.00384 | > 90 | 0.0207 | – | – | – | – | – |
| CCn1nnc([C@H]2O[C@@H](n3cnc4c(NC5CCCO5)nc(Cl)nc43)[C@H](O)[C@@H]2O)n1 (stereo partly specified) | 0.00742 | > 90 | 0.00962 | 3.15 | > 90 | 0.00106 | 0.104 | 0.0332 | > 90 | 0.87 | – | – | – | – | – |
| CCn1nnc([C@H]2O[C@@H](n3cnc4c(NC)nc(Cl)nc43)[C@H](O)[C@@H]2O)n1 | 0.25 | > 90 | 0.000429 | 3.51 | – | 0.00859 | 0.00769 | 0.238 | > 90 | 3.35 | – | 7800 | 75 | 390 | – |
| CCn1nnc([C@H]2O[C@@H](n3cnc4c(N[C@H]5C[C@@H]6CC[C@@H]5C6)nc(Cl)nc43)[C@H](O)[C@@H]2O)n1 (racemic) | 0.0102 | > 90 | 0.0161 | > 30 | > 90 | 0.000728 | 0.721 | 0.0128 | > 90 | 0.164 | – | – | – | – | – |
| OC[C@H]1O[C@@H](n2cnc3c(NC4CCCC4)nc(Cl)nc32)[C@H](O)[C@@H]1O | – | – | – | – | – | – | – | – | – | – | – | – | – | – | Active |
| CCn1nnc([C@H]2O[C@@H](n3cnc4c(N[C@H]5C[C@@H]6CC[C@@H]5C6)ncnc43)[C@H](O)[C@@H]2O)n1 (racemic) | 0.00466 | > 90 | 0.00885 | 1.01 | > 90 | 0.000453 | 0.0839 | 0.00771 | > 90 | 0.0645 | – | – | – | – | – |
| CCn1nnc([C@H]2O[C@@H](n3cnc4c(NC5CCCO5)ncnc43)[C@H](O)[C@@H]2O)n1 (stereo partly specified) | 0.00874 | > 90 | 0.0154 | 1.34 | > 90 | 0.00123 | 0.0619 | 0.0251 | > 90 | 0.554 | – | – | – | – | – |
| CCn1nnc([C@H]2O[C@@H](n3cnc4c(NC)ncnc43)[C@H](O)[C@@H]2O)n1 | 0.0972 | > 90 | 0.000478 | 1.48 | > 90 | 0.00356 | 0.00638 | 1.71 | > 90 | 0.778 | – | – | – | – | – |
